In patent US20080200454A1, “CARBON-LINKED TETRAHYDRO-PYRAZOLO-PYRIDINE MODULATORS OF CATHEPSIN S” (priority 2007, published 2008):

Target: Recombinant human cathepsin S (CatS) (Homo sapiens, UniProt P25774)
Assay: Recombinant human cathepsin S (CatS) inhibition assay, fluorogenic substrate Z-Valine-Valine-Arginine-AMC;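 further: Baculovirus-expressed CatS in pH 5.0 sodium acetate buffer with DTT and NaCl, fluorescence read each minute over 20 min, inhibition derived from rate slope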
Details: not given

Chain of Recombinant human cathepsin S (CatS) (P25774 115-331): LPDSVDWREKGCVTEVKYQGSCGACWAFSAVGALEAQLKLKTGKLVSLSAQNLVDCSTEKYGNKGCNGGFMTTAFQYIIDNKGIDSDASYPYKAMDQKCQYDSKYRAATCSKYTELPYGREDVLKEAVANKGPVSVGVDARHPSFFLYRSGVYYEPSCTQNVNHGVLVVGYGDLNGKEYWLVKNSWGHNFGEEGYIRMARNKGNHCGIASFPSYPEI

| Molecule | IC50 [nM] |
| --- | --- |
| CS(=O)(=O)N1CCc2c(c(-c3ccc(Cl)c(C#Cc4ccc(CCC(=O)O)cc4)c3)nn2CCCN2CCOCC2)C1 [Example 9, 3-(4-{2-Chloro-5-[5-methanesulfonyl-1-(3-morpholin-4-yl-propyl)-4,5,6,7-tetrahydro-1H-pyrazolo[4,3-c]pyridin-3-yl]-phenylethynyl}-phenyl)-propionic acid] | 160 |
| CS(=O)(=O)N1CCc2c(c(-c3ccc(Cl)c(CCCNS(=O)(=O)c4ccccc4)c3)nn2CCCN2CCC(N3CCCC3=O)CC2)C1 [Example 91, N-{3-[2-Chloro-5-(5-methanesulfonyl-1-{3-[4-(2-oxo-pyrrolidin-1-yl)-piperidin-1-yl]-propyl}-4,5,6,7-tetrahydro-1H-pyrazolo[4,3-c]pyridin-3-yl)-phenyl]-propyl}-benzenesulfonamide] | 940 |
| CS(=O)(=O)N1CCc2c(c(-c3ccc(Cl)c(CCc4ccc5[nH]ccc5c4)c3)nn2CCCN2CCOCC2)C1 [Example 2, 3-{4-Chloro-3-[2-(1H-indol-5-yl)-ethyl]-phenyl}-5-methanesulfonyl-1-(3-morpholin-4-yl-propyl)-4,5,6,7-tetrahydro-1H-pyrazolo[4,3-c]pyridine] | 350 |
| CN1CCN(CCCc2cc(-c3nn(CCCN4CCC(N5CCCC5=O)CC4)c4c3CN(S(C)(=O)=O)CC4)ccc2Cl)CC1 [Example 106, 1-{1-[3-(3-{4-Chloro-3-[3-(4-methyl-piperazin-1-yl)-propyl]-phenyl}-5-methanesulfonyl-4,5,6,7-tetrahydro-pyrazolo[4,3-c]pyridin-1-yl)-propyl]-piperidin-4-yl}-pyrrolidin-2-one] | 4420 |

Results, then the molecule that gave them:

| IC50 [nM] | Molecule |
| --- | --- |
| 410 | CC(=O)NC1CCN(CCCn2nc(-c3ccc(Cl)c(C#Cc4ccc(CNCc5ccc(Cl)cc5)cc4)c3)c3c2CCNC3)CC1 [Example 369, N-(1-{3-[3-(4-Chloro-3-{[4-({[(4-chlorophenyl)methyl]amino}methyl)phenyl]ethynyl}phenyl)-4,5,6,7-tetrahydro-1H-pyrazolo[4,3-c]pyridin-1-yl]propyl}piperidin-4-yl)acetamide] |
| 40 | COC(=O)C1CCN(CC(O)Cn2nc(-c3ccc(C(F)(F)F)c(C#Cc4ccc(Cl)cc4)c3)c3c2CCN(S(C)(=O)=O)C3)CC1 (stereo not drawn) [Example 117, 1-(3-{3-[3-(4-Chloro-phenylethynyl)-4-trifluoromethyl-phenyl]-5-methanesulfonyl-4,5,6,7-tetrahydro-pyrazolo[4,3-c]pyridin-1-yl}-2-hydroxy-propyl)-piperidine-4-carboxylic acid methyl ester] |
| 230 | NC(=O)N1CCc2c(c(-c3ccc(Cl)c(C#Cc4cccc(CNCc5ccccc5Cl)c4)c3)nn2CCCN2CCSCC2)C1 [Example 513, 3-(4-Chloro-3-{[3-({[(2-chlorophenyl)methyl]amino}methyl)phenyl]ethynyl}phenyl)-1-(3-thiomorpholin-4-ylpropyl)-1,4,6,7-tetrahydro-5H-pyrazolo[4,3-c]pyridine-5-carboxamide] |
| 100 | NC(=O)C(=O)N1CCc2c(c(-c3ccc(Cl)c(C#Cc4ccc(CNCc5ccc(Cl)cc5)cc4)c3)nn2CCCN2CCCCC2)C1 [Example 449, 2-[3-(4-Chloro-3-{[4-({[(4-chlorophenyl)methyl]amino}methyl)phenyl]ethynyl}phenyl)-1-(3-piperidin-1-ylpropyl)-1,4,6,7-tetrahydro-5H-pyrazolo[4,3-c]pyridin-5-yl]-2-oxoacetamide] |
| 120 | NC(=O)N1CCc2c(c(-c3ccc(Cl)c(C#Cc4ccc(COCC5CNCCO5)cc4)c3)nn2CCCN2CCSCC2)C1 (stereo not drawn) [Example 548, 3-{4-Chloro-3-[(4-{[(morpholin-2-ylmethyl)oxy]methyl}phenyl)ethynyl]phenyl}-1-(3-thiomorpholin-4-ylpropyl)-1,4,6,7-tetrahydro-5H-pyrazolo[4,3-c]pyridine-5-carboxamide] |
| 30 | CS(=O)(=O)N1CCc2c(c(-c3ccc(Cl)c(C#Cc4ccc5c(c4)CN[C@H](C(=O)N4CCCCC4)C5)c3)nn2CCCN2CCOCC2)C1 [Example 486, (3S)-7-({2-Chloro-5-[5-(methylsulfonyl)-1-(3-morpholin-4-ylpropyl)-4,5,6,7-tetrahydro-1H-pyrazolo[4,3-c]pyridin-3-yl]phenyl}ethynyl)-3-(piperidin-1-ylcarbonyl)-1,2,3,4-tetrahydroisoquinoline] |
| 280 | CS(=O)(=O)N1CCc2c(c(-c3ccc(Cl)c(C#Cc4ccc5c(c4)CCNC5)c3)nn2CCCN2CCOCC2)C1 [Example 365, 6-({2-Chloro-5-[5-(methylsulfonyl)-1-(3-morpholin-4-ylpropyl)-4,5,6,7-tetrahydro-1H-pyrazolo[4,3-c]pyridin-3-yl]phenyl}ethynyl)-1,2,3,4-tetrahydroisoquinoline] |
| 3520 | C[C@H]1COCCN1CCCn1nc(-c2ccc(Cl)c(C#Cc3ccc4c(c3)CN(C3CC3)CC4)c2)c2c1CCNC2 [Example 481, 7-{[2-Chloro-5-(1-{3-[(3S)-3-methylmorpholin-4-yl]propyl}-4,5,6,7-tetrahydro-1H-pyrazolo[4,3-c]pyridin-3-yl)phenyl]ethynyl}-2-cyclopropyl-1,2,3,4-tetrahydroisoquinoline] |
| 50 | CC(=O)NC1CCN(CC(O)Cn2nc(-c3ccc(Cl)c(C#Cc4ccc(CNCc5ccc(Cl)cc5)cc4)c3)c3c2CCN(S(C)(=O)=O)C3)CC1 (stereo not drawn) [Example 362, N-(1-{3-[3-(4-Chloro-3-{[4-({[(4-chlorophenyl)methyl]amino}methyl)phenyl]ethynyl}phenyl)-5-(methylsulfonyl)-4,5,6,7-tetrahydro-1H-pyrazolo[4,3-c]pyridin-1-yl]-2-hydroxypropyl}piperidin-4-yl)acetamide] |
| 140 | C[C@H]1COCCN1C[C@H](O)Cn1nc(-c2ccc(Cl)c(C#Cc3ccc(CNCc4ccc(Cl)cc4)cc3)c2)c2c1CCN(S(C)(=O)=O)C2 [Example 265, (2S)-1-[3-(4-Chloro-3-{4-[(4-chloro-benzylamino)-methyl]-phenylethynyl}-phenyl)-5-methanesulfonyl-4,5,6,7-tetrahydro-pyrazolo[4,3-c]pyridin-1-yl]-3-((3S)-3-methyl-morpholin-4-yl)-propan-2-ol] |
| 120 | CS(=O)(=O)N1CCc2c(c(-c3ccc(Cl)c(C#Cc4ccc5c(c4)CC(C(=O)N4CCCCC4)NC5)c3)nn2CCCN2CCOCC2)C1 (stereo not drawn) [Example 204, 6-({2-Chloro-5-[5-(methylsulfonyl)-1-(3-morpholin-4-ylpropyl)-4,5,6,7-tetrahydro-1H-pyrazolo[4,3-c]pyridin-3-yl]phenyl}ethynyl)-3-(piperidin-1-ylcarbonyl)-1,2,3,4-tetrahydroisoquinoline] |

Same assay, conditions: CatS IC50

| Molecule | IC50 [nM] |
| --- | --- |
| CN(C)c1ccc(CNCc2ccc(C#Cc3cc(-c4nn(CCCN5CCSCC5)c5c4CN(C(N)=O)CC5)ccc3Cl)cc2)cc1 [Example 175, 3-[4-Chloro-3-({4-[({[4-(dimethylamino)phenyl]methyl}amino)methyl]phenyl}ethynyl)phenyl]-1-(3-thiomorpholin-4-ylpropyl)-1,4,6,7-tetrahydro-5H-pyrazolo[4,3-c]pyridine-5-carboxamide] | 190 |
| C[C@H]1COCCN1CCCn1nc(-c2ccc(Cl)c(C#Cc3ccc(CNCc4ccco4)cc3)c2)c2c1CCN(S(C)(=O)=O)C2 [Example 432, 1-[4-({2-Chloro-5-[1-{3-[(3S)-3-methylmorpholin-4-yl]propyl}-5-(methylsulfonyl)-4,5,6,7-tetrahydro-1H-pyrazolo[4,3-c]pyridin-3-yl]phenyl}ethynyl)phenyl]-N-(furan-2-ylmethyl)methanamine] | 230 |
| CS(=O)(=O)N1CCc2c(c(-c3ccc(Cl)c(C#Cc4ccc(Cl)c(CNC5CCCC5)c4)c3)nn2CCCN2CCCCC2)C1 [Example 597, N-[2-Chloro-5-({2-chloro-5-[5-(methylsulfonyl)-1-(3-piperidin-1-ylpropyl)-4,5,6,7-tetrahydro-1H-pyrazolo[4,3-c]pyridin-3-yl]phenyl}ethynyl)benzyl]cyclopentanamine] | 40 |
| CS(=O)(=O)N1CCc2c(c(-c3ccc(Cl)c(C#Cc4ccc(CNCc5ccc(Cl)cc5)cc4)c3)nn2CCCN2CCC(N3CCCCC3=O)CC2)C1 [Example 338, 1′-{3-[3-(4-Chloro-3-{[4-({[(4-chlorophenyl)methyl]amino}methyl)phenyl]ethynyl}phenyl)-5-(methylsulfonyl)-4,5,6,7-tetrahydro-1H-pyrazolo[4,3-c]pyridin-1-yl]propyl}-1,4′-bipiperidin-2-one] | 20 |
| CC(C)CNCc1cccc(CCc2cc(-c3nn(CCCN4CCOCC4)c4c3CN(S(C)(=O)=O)CC4)ccc2Cl)c1 [Example 531, N-{[3-(2-{2-Chloro-5-[5-(methylsulfonyl)-1-(3-morpholin-4-ylpropyl)-4,5,6,7-tetrahydro-1H-pyrazolo[4,3-c]pyridin-3-yl]phenyl}ethyl)phenyl]methyl}-2-methylpropan-1-amine] | 640 |
| Cn1cncc1CNCc1ccc(C#Cc2cc(-c3nn(CCCN4CCOCC4)c4c3CN(S(C)(=O)=O)CC4)ccc2Cl)cc1 [Example 457, 1-[4-({2-Chloro-5-[5-(methylsulfonyl)-1-(3-morpholin-4-ylpropyl)-4,5,6,7-tetrahydro-1H-pyrazolo[4,3-c]pyridin-3-yl]phenyl}ethynyl)phenyl]-N-[(1-methyl-1H-imidazol-5-yl)methyl]methanamine] | 90 |
| CS(=O)(=O)N1CCc2c(c(-c3ccc(Cl)c(C#Cc4ccc5c(c4)CCN(C4CC4)C5)c3)nn2CCCN2CCOCC2)C1 [Example 284, 6-({2-Chloro-5-[5-(methylsulfonyl)-1-(3-morpholin-4-ylpropyl)-4,5,6,7-tetrahydro-1H-pyrazolo[4,3-c]pyridin-3-yl]phenyl}ethynyl)-2-cyclopropyl-1,2,3,4-tetrahydroisoquinoline] | 200 |
| CN(C)Cc1cc(C#Cc2cc(-c3nn(CCCN4CCSCC4)c4c3CN(C(N)=O)CC4)ccc2Cl)ccc1Cl [Example 615, 3-[4-Chloro-3-({4-chloro-3-[(dimethylamino)methyl]phenyl}ethynyl)phenyl]-1-(3-thiomorpholin-4-ylpropyl)-1,4,6,7-tetrahydro-5H-pyrazolo[4,3-c]pyridine-5-carboxamide] | 30 |

Same assay, conditions: read-out: CatS IC50; Table 4; average of results obtained

| IC50 [nM] | Molecule |
| --- | --- |
| 7420 | (2S)-1-(4,4′-Bipiperidin-1-yl)-3-[3-{4-chloro-3-[3-(diethylamino)prop-1-yn-1-yl]phenyl}-5-(methylsulfonyl)-4,5,6,7-tetrahydro-1H-pyrazolo[4,3-c]pyridin-1-yl]propan-2-ol [Example 471] |
